In patent US20260124315A1, “CATALYST AUGMENTED TARGET SPECIFIC POLYPEPTIDE” (TECHNISCHE UNIVERSITAT BERLIN, priority 2022, published 2026):
Where two headings read alike, the source gives them in different places. No end group written: not given here.

Tests used:
[1] = tested on: SK-BR-3 breast cancer cells; experiment: Dose-response of paclitaxel versus paclitaxel prodrug in SK-BR-3 cells; format: cell-based; conditions: Homo sapiens, semilog dose-response
Source text: This vast drop of anticancer activity highlights the essential role of the C2′-OH of PTX for binding its target.

[2] = Catalytic screening of metallopeptides (ProRes to resorufin fluorescence); conditions: Pd-peptides 10 μM, ProRes 100 μM, PBS, 37° C., 24 h
Experimental: Catalytic screening of metallopeptides. Metallopeptides, either mixed or as individual Pd-peptides (Pd-HRGDHC (SEQ ID NO: 6) or Pd-LLEYLKR (SEQ ID NO: 7) (10 μM) were incubated with Pd-labile off/on sensor O-propargyl-resorufin (ProRes)^2 (100 μM) in PBS (500 μL). The mixtures were shaken at 700 rpm and 37° C. in a Thermomixer and reactions were monitored after 24 h using a FLUOstar Omega multilabel reader (Ex/Em: 540/590 nm).

[3] = Fluorogenic catalysis of ProRes in PBS versus serum (10% FBS in PBS); conditions: 37° C., 24 h
Experimental: (a) Catalytic deprotection of the propargylated dye (ProRes, 100 μM) occurs in the presence of either Pd(OAc)2 (Pd, 1.4 μM), or in the presence of NB-HRGDH-Pd (NB—Pd, 1.4 μM). The catalysis was performed at physiological conditions (pH 7.4, 37° C.) in PBS or in serum (10% FBS in PBS). The fluorescence measurements were normalised against the value of fluorescence after catalysis in PBS (100%) and corrected by the fluorescence of the product, Resorufin, in PBS and serum, respectively. (b) Scheme representing the catalysis of ProRes by NB—Pd in the presence of serum and the catalytic deactivation of Pd(OAc)2 by serum.
In solution. […] The mixtures were shaken at 700 rpm and 37° C. in a Thermomixer, and reactions were monitored after 24 h using a FLUOstar Omega multilabel reader (Ex/Em: 540/590 nm). […] The fluorescence measurements were normalised against the value of fluorescence after catalysis in PBS (100%) and corrected by the fluorescence of the product, Resorufin, in PBS and serum, respectively.
Pd(OAc)2 and Pd-peptide (Pd-HRGDHC) were incubated with the previously described sensor (ProRes) in PBS or in 10% FBS—PBS at 37° C. in a Thermomixer, and reactions were monitored after 24 h using a multilabel reader. Fluorescence increment was observed after catalysis. […]

[4] = tested on: SK-BR-3 cells; experiment: Prodrug-into-drug conversion, extracellular, SK-BR-3; format: cell-based; conditions: for catalytic conversion of ProPTX into paclitaxel in cell culture: catalyst 1.4 μM + ProPTX 0.3 μM, SK-BR-3; for cell death: in combination with ProPTX 0.3 μM, SK-BR-3, 5 days, PrestoBlue
Experimental: Error bars: LSD from n=2. Significance was determined by one-way analysis of variance (ANOVA): ^nsP>0.05, *P<0.05.
Error bars: ±SD from n=3.
Extracellular conversion. […] The cells treated with PTX and ProPTX at 0.3 μM were used as positive and negative controls, respectively. After 5d, PrestoBlue cell viability reagent (10% v/v) was added to each well and the plate was incubated for 90 min. […] Experiments were performed in triplicates.
SK-BR-3 cells were seeded and incubated with a solution of Pd(OAc)2 or Pd-peptide (Pd-HRGDHC) in combination with either DMSO or ProPTX (0.3 μM). After 5 days, Presto blue cell viability reagent was added and fluorescence emission was detected using a multilabel plate reader.
After 5d, Presto blue cell viability reagent was added to each well and fluorescence emission was detected using a multilabel fluorescence reader.

[5] = tested on: SK-BR-3 cells; conditions: read-out: EC50 (cell viability), SK-BR-3, day 5, PrestoBlue
Experimental: Dose-response curves of Pd (Pd(OAc)2) and Pd-peptide (HRGDHC-Pd) at different concentrations (100-1 μM) in HER2+ breast cancer cell line SK-BR-3. Cell viability was measured on day 5 using PrestoBlue reagent. Error bars: ±SD from n=3.
Cell viability was measured on day 5 using PrestoBlue reagent. Error bars: ±SD from n=3.
Cells were seeded in a 96-well plate format (at 2,000 cells per well) and incubated for 24 h before treatment. […] Untreated cells were incubated with DMSO (0.1% v/v). After 5d of incubation, cell viability was determined as described above. All conditions were normalised to the untreated cells (100%) and curves fitted using GraphPad Prism using a sigmoidal variable slope curve. Experiments were performed in triplicates.
Presto blue reagent was added to quantitatively measure viability by fluorescence detection and EC50 values were calculated by plotting dose-response curves.

[6] = tested on: HER2 negative cells MCF-7; experiment: Prodrug-into-drug conversion, intracellular (1 h incubation, wash), MCF-7; format: cell-based; conditions: NB—Pd 1 h, washed, then ProPTX 0.3 μM, 5 days
Experimental: Cell viability was measured on day 5 using PrestoBlue reagent. Error bars: LSD from n=3. Significance was determined by one-way analysis of variance (ANOVA): ^nsP>0.05, *P<0.05, **P<0.01, ****P<0.0001.
Intracellular conversion. SK-BR-3 and MCF-7 cells were seeded in a 96-well plate format (at 2,000 cells per well) and incubated for 24 h before treatment. Each well was then replaced with a solution of NB—Pd (20 μg/mL, 1.4 μM) in culture media and incubated for 1 h. Cells were then washed with PBS and fresh media containing either DMSO (0.1% v/v) or ProPTX (0.3 μM) was added. The cells treated with PTX and ProPTX at 0.3 μM were used as positive and negative controls, respectively. After 5d, PrestoBlue cell viability reagent (10% v/v) was added to each well and the plate was incubated for 90 min. Fluorescence emission was detected using a FLUOstar Omega multilabel reader (Ex/Em: 540/590 nm). Experiments were performed in triplicates.
SK-BR-3 and MCF-7 cells (HER2 positive and negative respectively) were seeded and incubated with a solution of NB—Pd for 1 h. Cells were then washed with PBS and fresh media containing either DMSO or ProPTX (0.3 μM) was added. After 5 days, Presto blue cell viability reagent was added and fluorescence emission was detected. […] Results are to be found in FIG. 6.

| Molecule | catalytic activity (conversion of ProRes into fluorescent resorufin) [2] | catalytic conversion of ProPTX into paclitaxel in cell culture [4] | cell death [4] [%] | other results |
| --- | --- | --- | --- | --- |
| CC(=O)O[C@H]1C(=O)[C@@]2(C)[C@H]([C@H](OC(=O)c3ccccc3)[C@]3(O)C[C@H](OC(=O)[C@H](O)[C@@H](NC(=O)c4ccccc4)c4ccccc4)C(C)=C1C3(C)C)[C@]1(OC(C)=O)CO[C@@H]1C[C@@H]2O [PTX, paclitaxel] | – | – | – | EC50 [1]: 0.0018 µM |
| HRGDHC-OH [Pd-peptide] | show catalytic activity | converting the prodrug | > 40 | catalytic activity in serum relative to catalytic activity in PBS ([3]; 10% FBS-PBS vs PBS): at least 18% |
| CC(=O)[O-].CC(=O)[O-].[Pd+2] [Pd(OAc)2, reference compound] | – | Non-significant catalysis | – | catalytic activity in serum ([3]; 10% FBS-PBS): lost its catalytic properties; EC50 [5]: 23 µM; EC50 ([5]; listed as Pd): 39 µM |
| C1=C\CC/C=C\CC/1.[Cl][Pd][Cl] [Pd(Cod)Cl2, reference compound] | – | poor catalytic efficiency | – | – |
| LLEYLKR (also: Pd complex) [reference compound] | does not show any catalytic activity | – | – | – |
| NB—Pd: HER2 nanobody-HRGDH fusion complexed with Pd after incubation with Pd(OAc)2 at molar ratio 1:1 (conjugate) VHH: QVQLQESGGGSVQAGGSLKLTCAASGYIFNSCGMGWYRQSPGRERELVSRISGDGDTWHKESVKGRFTISQDNVKKTLYLQMNSLKPEDTAVYFCAVCYNLETYWGQGTQVTVSSGGGGSHRGDHENLYFQSHHHHHH | – | – | > 70 | effect on cell viability [6]: no effect |
